Measurements as given in PubChem BioAssay (NCI).
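Step 1: Grow cells in 96-well plates. Step 2: Expose to compound for 48 hours at 5 concentrations. Step 3: Interpolate endpoints linearly; if unreached, use highest concentration. At the GI50, growth is halved. At the TGI there is no net growth.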

Tests used:
Test in all cases: growth of human tumour cells (NCI), 48 h
[1] = test system: DU-145 prostate
[2] = test system: K-562 leukemia
[3] = test system: MCF7 breast
[4] = test system: MDA-MB-435
[5] = test system: NCI-H226 lung
[6] = test system: NCI-H23 lung
[7] = test system: NCI-H460 lung
[8] = test system: RXF 393 renal
[9] = test system: SF-539 CNS
[10] = test system: SNB-19 CNS
[11] = test system: UACC-62 melanoma
[12] = test system: HL-60(TB) leukemia

SMILES | TGI [1] | TGI [2] | TGI [3] | TGI [4] | TGI [5] | TGI [6] | TGI [7] | TGI [8] | TGI [9] | TGI [10] | TGI [11] | TGI [12] | GI50 [12] | GI50 [8] | GI50 [5] | GI50 [6] | GI50 [9] | GI50 [10]
CCOC(=O)/C=C(/C(=O)OCC)n1ccc(=O)n(Cc2cnnn2COCCOC(C)=O)c1=O | 42.9 µM | > 100 µM | 27.7 µM | 32.5 µM | 57.3 µM | 33.3 µM | > 65 µM | 39 µM | 25.7 µM | > 31.6 µM | 32.8 µM | – | – | – | – | – | – | –
C=C(C(=O)OC)[C@@H]1C[C@@H](OC(C)=O)C2=C[C@H](C[C@@]3(C)O[C@@H]3C3=CC(C)=C(O3)[C@H]1OC(C)=O)OC2=O | > 100 µM | 24.9 µM | 35.3 µM | 37.9 µM | > 100 µM | 35.5 µM | 64.5 µM | 44 µM | 79 µM | > 100 µM | 40.9 µM | – | – | – | – | – | – | –
CCOC(=O)c1nc2ccc(C(F)(F)F)cc2nc1NCc1ccc(OC)c(OC)c1 | – | > 100 µM | > 100 µM | > 100 µM | > 100 µM | > 100 µM | > 100 µM | > 100 µM | > 100 µM | > 100 µM | > 100 µM | > 100 µM | – | – | – | – | – | –
CCC(C)[C@@H](Nc1c(O)c2c(c(O)c1Cl)C(=O)C=CC2=O)C(=O)OC (some centres not stated) | > 10 µM | > 10 µM | > 10 µM | > 10 µM | > 10 µM | 5.7 µM | > 10 µM | – | > 10 µM | > 10 µM | > 10 µM | 5.93 µM | – | – | – | – | – | –
COc1cc2c(c(OC)c1OC)-c1ccc(SC)c(=O)cc1[C@@H](O)CC2 | > 100 µM | > 100 µM | > 100 µM | – | 0.0169 µM | – | > 100 µM | > 100 µM | – | – | > 100 µM | – | 6.13 µM | > 100 µM | – | – | – | –
CCOP(=O)(OCC)C(NC(=O)C(C(F)(F)F)C(F)(F)F)c1ccccc1 (configuration not stated) | > 100 µM | > 100 µM | > 100 µM | > 100 µM | – | > 100 µM | > 100 µM | > 100 µM | > 100 µM | > 100 µM | > 100 µM | 67.9 µM | – | – | – | – | – | –
CC(C)C1NC(=O)CC(c2ccccc2)N(N=O)C1c1ccccc1 (configuration not stated) | – | > 100 µM | > 100 µM | – | > 100 µM | > 100 µM | > 100 µM | > 100 µM | > 100 µM | > 100 µM | > 100 µM | > 100 µM | – | – | – | – | – | –
COc1cc(C2(c3ncc[nH]3)SSSCC2O)ccc1O (configuration not stated) | – | > 56.5 µM | > 100 µM | – | > 100 µM | > 100 µM | > 74.7 µM | 89.4 µM | > 100 µM | > 100 µM | > 51.2 µM | > 67.9 µM | – | – | – | – | – | –
S=c1ncc2c([nH]1)C1c3ccccc3C2c2ccccc21 | – | > 100 µM | – | – | > 100 µM | > 100 µM | > 100 µM | > 100 µM | > 100 µM | > 100 µM | > 100 µM | 70.3 µM | – | – | – | – | – | –
O=Cc1cc(C(=O)OCc2ccccc2)n(S(=O)(=O)c2ccccc2)c1 | > 100 µM | > 100 µM | 67.2 µM | 12.9 µM | – | 60.9 µM | 70.2 µM | 94.9 µM | 28.6 µM | > 100 µM | 31.6 µM | 63 µM | – | – | – | – | – | –
CCOC(=O)c1c(NC(=S)Nc2ccc(Cl)cc2)sc2c1CCN(C)C2 | > 100 µM | > 100 µM | > 100 µM | – | > 100 µM | > 100 µM | > 100 µM | > 100 µM | > 100 µM | > 100 µM | > 100 µM | > 100 µM | – | – | – | – | – | –
COc1cc(OC)cc(-c2cc(=O)c3cc4c(cc3[nH]2)OCO4)c1 | – | > 50.2 µM | – | – | 1.06 µM | 9.09 µM | 3.33 µM | 0.518 µM | 0.498 µM | 72.5 µM | > 53.3 µM | 0.714 µM | – | 0.219 µM | – | – | – | –
COc1ccccc1C(O)[C@@H]1C[C@@H]2[C@H]3CC[C@@](C)([C@@H]2O1)C3(C)C (some centres not stated) | 49.6 µM | 52.3 µM | 41.7 µM | 34.4 µM | – | 50.5 µM | 36.3 µM | 32.6 µM | 24.2 µM | 39 µM | 32.8 µM | 49.1 µM | – | – | – | – | – | –
C/C=C1\CN2CCc3c([nH]c4ccccc34)C2CC1CCO (configuration not stated) | – | > 100 µM | – | – | > 100 µM | > 100 µM | > 100 µM | > 100 µM | > 100 µM | > 100 µM | – | > 100 µM | – | – | – | – | – | –
C/C(=N\NC(=O)c1ccccc1O)c1cccc(/C(C)=N/NC(=O)c2ccccc2O)n1.O=S(=O)([O-])[O-].[Fe+2] | – | > 100 µM | – | – | > 100 µM | > 100 µM | > 100 µM | > 100 µM | > 100 µM | > 100 µM | > 100 µM | 0.341 µM | 0.156 µM | – | > 100 µM | > 100 µM | > 100 µM | > 100 µM
CC(=O)OCC(=O)OC[C@H](OCc1ccccc1)[C@@H]1[C@H](OC(C)=O)C(=O)N1Cc1ccccc1 | > 100 µM | > 100 µM | > 100 µM | > 100 µM | > 100 µM | > 100 µM | – | – | – | > 100 µM | > 100 µM | – | – | – | – | – | – | –

SMILES | TGI [1] | TGI [2] | TGI [3] | TGI [4] | TGI [5] | TGI [6] | TGI [7] | TGI [8] | TGI [9] | TGI [10] | TGI [11] | TGI [12] | GI50 [12] | GI50 [8] | GI50 [5] | GI50 [6] | GI50 [9] | GI50 [10]
CCOC(=O)c1nc2cc(C(F)(F)F)ccc2nc1Nc1ccc(C(=O)OC)s1 | > 100 µM | > 100 µM | – | > 100 µM | 87.3 µM | > 100 µM | > 100 µM | 50.8 µM | – | > 100 µM | 66.8 µM | > 100 µM | – | – | – | – | – | –
CCCCCc1c(CCCC)c(=O)[nH]c2nc(NC(=O)CCCC)ccc12 | – | > 100 µM | > 100 µM | > 100 µM | > 100 µM | > 100 µM | > 100 µM | > 100 µM | > 100 µM | > 100 µM | – | – | – | – | – | – | – | –
O=C(c1ccc(Cl)cc1)c1ccc(OCCCOc2ccc(C(=O)c3ccc(Cl)cc3)cc2Cl)c(Cl)c1 | – | > 100 µM | – | – | > 100 µM | > 100 µM | > 100 µM | > 100 µM | > 100 µM | > 100 µM | > 100 µM | > 100 µM | – | – | – | – | – | –
Cn1c2ccccc2c(=O)c2c(O)cc3c(c21)C=CC(C)(C)O3 | – | > 25 µM | > 25 µM | – | > 25 µM | > 25 µM | > 25 µM | > 25 µM | > 25 µM | > 25 µM | > 25 µM | > 20.1 µM | – | – | – | – | – | –
COc1ccc(-c2c3c(n(C4OC(CO)C(O)C(O)C4O)c(=S)c2C#N)CCCC3)cc1 (configuration not stated) | – | – | > 100 µM | > 100 µM | > 100 µM | > 100 µM | > 100 µM | > 100 µM | > 100 µM | – | > 100 µM | > 100 µM | – | – | – | – | – | –
COc1cccc(C2SC(N)=Nc3c2c(C)nn3C(=O)Cc2ccccc2)c1 (configuration not stated) | > 100 µM | > 100 µM | > 100 µM | > 100 µM | > 100 µM | > 100 µM | > 100 µM | – | > 100 µM | > 100 µM | > 100 µM | > 100 µM | – | – | – | – | – | –
C=C1C(=O)O[C@H]2C1C[C@@H](OC(C)=O)/C(C)=C/CC[C@@]1(C)O[C@H]21 (some centres not stated) | 27.8 µM | 39.5 µM | 23.4 µM | 87.7 µM | – | 37.2 µM | > 100 µM | 20.2 µM | – | 78 µM | 15.6 µM | – | – | – | – | – | – | –
C=CC1CN(C(=O)OCC)N(C(=O)OCC)C1CCc1ccccc1 (configuration not stated) | > 100 µM | > 100 µM | > 100 µM | > 100 µM | > 100 µM | > 100 µM | > 100 µM | – | – | > 100 µM | > 100 µM | > 100 µM | – | – | – | – | – | –
CSCSCC(CO)NC(=O)/C(C)=C\c1c(C)[nH]c(=O)[nH]c1=O (configuration not stated) | – | > 250 µM | > 250 µM | – | > 250 µM | > 250 µM | > 250 µM | > 250 µM | > 250 µM | > 250 µM | > 250 µM | > 250 µM | – | – | – | – | – | –
CC(C)CC(N)C(=O)Nc1ccc2ccccc2c1 (configuration not stated) | > 100 µM | > 100 µM | > 100 µM | – | > 100 µM | > 100 µM | – | > 100 µM | > 100 µM | > 100 µM | > 100 µM | > 100 µM | – | – | – | – | – | –
CCOP(=O)(OCC)C(C(=O)OC)C(=O)C(=O)Nc1cccc(O)c1 (configuration not stated) | > 100 µM | – | > 100 µM | > 100 µM | > 100 µM | > 100 µM | > 100 µM | > 100 µM | > 100 µM | > 100 µM | > 100 µM | – | – | – | – | – | – | –
CC(Nc1ccc(Cl)c(Cl)c1)c1ccncc1 (configuration not stated) | 89.7 µM | > 100 µM | > 100 µM | > 100 µM | 81.6 µM | > 100 µM | 44 µM | 54.3 µM | 56.4 µM | > 100 µM | – | – | – | – | – | – | – | –
CCOC(=O)/C(=N/Nc1ccccc1)N1C(=S)C=C(C)NN(C)C1=S | > 100 µM | > 100 µM | > 100 µM | > 100 µM | – | > 100 µM | > 100 µM | 20.1 µM | > 100 µM | > 100 µM | > 100 µM | > 100 µM | – | – | – | – | – | –
COc1ccc(OC)c2c1C=CC(Br)=CC2 | > 1 µM | 0.419 µM | > 1 µM | 0.853 µM | > 1 µM | > 1 µM | > 1 µM | – | > 1 µM | > 1 µM | 0.345 µM | – | – | – | – | – | – | –
Cn1cc2ccccc2c1-c1nc(F)nc(Oc2ccc3c(c2)CC[C@@H]2C3CC[C@@]3(C)C2C[C@H](O)[C@@H]3O)n1 (some centres not stated) | – | 42.8 µM | – | – | – | 42.9 µM | 83 µM | 66.6 µM | 28.9 µM | 29.5 µM | 40.6 µM | 43.7 µM | – | – | – | – | – | –
